Experiments:
[1] = test system: SNL-induced mechanical hyperalgesia; assay: SNL-induced mechanical hyperalgesia, von Frey; type: in vivo, mice; settings: WT and nNOS-/- mice, ZL006 i.v., 20 mg/kg
Description: (§1) Neuropathic pain was induced by segmental spinal nerve ligation (SNL). Animals were anesthetized with isoflurane. After the loss of righting reflex, the animal was fixed in the prone position. The SNL model was prepared as described previously: a median skin incision with about 3-5 cm length in L4-S2 level of the mouse back was made, the muscles next to the vertebrae till the sixth lumbar protruding were separated, the L5/L6 joint protruding on the right side was exposed and excised, and L6 processus transversus was partially split so that the L4-L6 spinal nerves on the right side were exposed. L5 nerve was gently isolated and tightly ligated with 5-0 silk thread. The wound was closed with 4-0 silk thread suture and covered with iodine solution. After nerve ligation, animals with signs of paw clonus or autotomy were excluded from further experiments.
For mice, the threshold for 50% PWT response to mechanical stimulus was quantified by assessing the paw withdrawal threshold using von Frey filaments (Touch-Test TM Sensory Evaluator, North coast Medical, Inc.). Mice were placed individually in a plastic cage (4.5 × 5 × 11 cm) with a wire mesh bottom which allowed full access to the paws. Behavioral accommodation was allowed for 20-30 min until cage exploration and major grooming activities ceased. Mechanical threshold was measured by applying a von Frey filament to the ventral surface of the right hind paw until a positive sign of pain behavior was elicited. The paradigm for assessing the threshold was as follows. Von Frey filaments with logarithmically incremental stiffness (0.02-2 g) were applied serially to the paw by the up-down method. The filaments were presented, in ascending order of strength, perpendicular to the plantar surface with sufficient force to causes light bending against the paw and held for 4s. A positive response was noted if the paw was sharply withdrawn. Flinching immediately upon removal of the hair was also considered a positive response. The 2-g filament was selected as the upper limit cut-off for testing. If there was no response at 2-g filament, animals were assigned this cut-off value. The pattern of positive and negative withdrawal responses was converted to 50% threshold according to the formula: 50% PWT = 10 log (X) + κδ. X = value (in log unit) of the final von Frey hair used; κ is correction factors based on the pattern of responses from the calibration table; δ = mean difference in log units between stimuli (here, 0.224).

[2] = test system: SNL-induced thermal hyperalgesia; assay: SNL-induced thermal hyperalgesia, paw withdrawal latency; type: in vivo, mice; settings: WT and nNOS-/- mice, ZL006 i.v., 20 mg/kg
Description: as §1, with “The wound was closed with 4-0 silk thread suture and covered with iodine solution. After nerve ligation, animals with signs of paw clonus or autotomy were excluded from further experiments.” left out
(§2) Paw withdrawal latency (PWL) response to thermal stimulus was assessed through the Hargreaves test. […] To record the PWL in response to thermal stimulus, each animal was measured five times with a 5-min interval, and the mean value was recorded after excluding maximal and minimum values. […]
(A) Time course of SNL-induced thermal hyperalgesia after treating with ZL006-05 (60 mg/kg, i.g.) in mice. Paw withdrawal latency response to thermal stimulation was detected at 0, 1, 2, 4, 6, 8, 10, 12 and 24 h after drug administration. ( B) Areas under the curve of paw withdrawal latency 0-24 h after treatment calculated from ( A) (F (1,16) = 43.07, ***p < 0.001, two-tailed t-test, n = 9). […]

[3] = test system: laminae I excitatory neurons in the SDH; assay: mIPSCs/mEPSCs recordings from acute spinal slices of chronically treated rats; type: in vivo, rat; settings: SNL rats, ZL006 0.2 mg/d intrathecal × 11 days
Source text: (§3) Osmotic minipumps (models 1004 for mouse and 2ML4 for rat; Alzet) and intrathecal cannulas (0.61 mm outer diameter and 0.28 mm inner diameter for mouse, 0.99 mm outer diameter and 0.58 mm inner diameter for rat) were filled with a solution of PBS. Cannulas were inserted into the subarachnoid space through the space between the L5 and L6 vertebrae and the tip of the catheter was implanted at the L5 spinal segmental level.
All solutions were bubbled with 95% O2 -5% CO2.
For mPSCs measurements, whole-cell recordings were made from putative excitatory neurons in superficial dorsal horn using low-resistance pipettes (4-8 MΩ). Before mPSCs measurements, excitatory neurons were distinguished from inhibitory neurons by firing pattern analysis according to the established relationship between neuronal firing pattern and its neurotransmitter phenotype, [32]-[34] For mEPSCs measurement, the membrane potential was held at -60 mV. […] Tetrodotoxin (0.5 μM) and bicuculline (20 μM) were added to block action potentials and GABAA receptor-mediated currents respectively. For mIPSCs measurement, the membrane potential was held at -70 mV, microelectrodes were filled with internal pipette solution containing CsCl 140, HEPES 10.0, MgATP 4.0, NaGTP 3.0, EGTA 1.0, MgCl2 1.0, CaCl2 0.3 (in mM). […]. […] Each recording lasts more than 5 min. Data were analyzed using Mini software. Up to 120 events from each neuron were selected at a fixed sampling interval to generate cumulative probability.

neuropathic pain = test system: neuropathic pain; design: method as in PMID 32632774; settings: treatment of neuropathic pain, chronic use; cited from earlier work
[4] = test system: SNL-induced thermal hyperalgesia; assay: SNL-induced thermal hyperalgesia, paw withdrawal latency (Hargreaves); type: in vivo, rat; settings: SNL rats, ZL006 0.2 mg/d intrathecal infusion × 11 days
Description: as §1
Osmotic minipumps (models 1004 for mouse and 2ML4 for rat; Alzet) and intrathecal cannulas (0.61 mm outer diameter and 0.28 mm inner diameter for mouse, 0.99 mm outer diameter and 0.58 mm inner diameter for rat) were filled with a solution of PBS. […]
as §2

[5] = test system: SNL-induced mechanical hyperalgesia; assay: SNL-induced mechanical hyperalgesia, paw withdrawal threshold; type: in vivo, rat; settings: SNL rats, ZL006 0.2 mg/d intrathecal infusion × 11 days
Description: as §1, §3
For rats, the threshold for 50% paw withdrawal (50% PWT) response to mechanical stimulus was assessed through a dynamic plantar apparatus (Ugo Basile, Italy). The 50% PWT refers to that the probability of paw withdrawal response to repeated mechanical stimulus is 50%. Rats were placed individually in a plastic cage (17 × 15 × 15 cm) with a wire mesh bottom which allowed full access to the paws. Behavioral accommodation was allowed for 15-20 min until cage exploration and major grooming activities ceased. A maximal cut-off of 50g/50s was set to prevent tissue damage. To record the PWT in response to mechanical stimulus, each rat was measured five times with a 5-min interval, and the mean value was recorded after excluding maximal and minimum values. The experimental procedures were performed in a double-blind manner.

PSD-95-nNOS complex = biological target: T1, PSD-95-nNOS complex (Rattus norvegicus, UniProt P29476); assay: Co-IP of PSD-95-nNOS complex levels in the spinal dorsal horn after SNL; type: in vivo; settings: SNL rats, ZL006 10 mg/kg, i.v.
T1 construct: dorsal spinal cord tissues (L4 and L5) were lysed in 400 μl RIPA; from tissue; host or cells: rat dorsal spinal cord (L4 and L5), SNL model
T1 sequence (P29476 whole entry, one chain of several): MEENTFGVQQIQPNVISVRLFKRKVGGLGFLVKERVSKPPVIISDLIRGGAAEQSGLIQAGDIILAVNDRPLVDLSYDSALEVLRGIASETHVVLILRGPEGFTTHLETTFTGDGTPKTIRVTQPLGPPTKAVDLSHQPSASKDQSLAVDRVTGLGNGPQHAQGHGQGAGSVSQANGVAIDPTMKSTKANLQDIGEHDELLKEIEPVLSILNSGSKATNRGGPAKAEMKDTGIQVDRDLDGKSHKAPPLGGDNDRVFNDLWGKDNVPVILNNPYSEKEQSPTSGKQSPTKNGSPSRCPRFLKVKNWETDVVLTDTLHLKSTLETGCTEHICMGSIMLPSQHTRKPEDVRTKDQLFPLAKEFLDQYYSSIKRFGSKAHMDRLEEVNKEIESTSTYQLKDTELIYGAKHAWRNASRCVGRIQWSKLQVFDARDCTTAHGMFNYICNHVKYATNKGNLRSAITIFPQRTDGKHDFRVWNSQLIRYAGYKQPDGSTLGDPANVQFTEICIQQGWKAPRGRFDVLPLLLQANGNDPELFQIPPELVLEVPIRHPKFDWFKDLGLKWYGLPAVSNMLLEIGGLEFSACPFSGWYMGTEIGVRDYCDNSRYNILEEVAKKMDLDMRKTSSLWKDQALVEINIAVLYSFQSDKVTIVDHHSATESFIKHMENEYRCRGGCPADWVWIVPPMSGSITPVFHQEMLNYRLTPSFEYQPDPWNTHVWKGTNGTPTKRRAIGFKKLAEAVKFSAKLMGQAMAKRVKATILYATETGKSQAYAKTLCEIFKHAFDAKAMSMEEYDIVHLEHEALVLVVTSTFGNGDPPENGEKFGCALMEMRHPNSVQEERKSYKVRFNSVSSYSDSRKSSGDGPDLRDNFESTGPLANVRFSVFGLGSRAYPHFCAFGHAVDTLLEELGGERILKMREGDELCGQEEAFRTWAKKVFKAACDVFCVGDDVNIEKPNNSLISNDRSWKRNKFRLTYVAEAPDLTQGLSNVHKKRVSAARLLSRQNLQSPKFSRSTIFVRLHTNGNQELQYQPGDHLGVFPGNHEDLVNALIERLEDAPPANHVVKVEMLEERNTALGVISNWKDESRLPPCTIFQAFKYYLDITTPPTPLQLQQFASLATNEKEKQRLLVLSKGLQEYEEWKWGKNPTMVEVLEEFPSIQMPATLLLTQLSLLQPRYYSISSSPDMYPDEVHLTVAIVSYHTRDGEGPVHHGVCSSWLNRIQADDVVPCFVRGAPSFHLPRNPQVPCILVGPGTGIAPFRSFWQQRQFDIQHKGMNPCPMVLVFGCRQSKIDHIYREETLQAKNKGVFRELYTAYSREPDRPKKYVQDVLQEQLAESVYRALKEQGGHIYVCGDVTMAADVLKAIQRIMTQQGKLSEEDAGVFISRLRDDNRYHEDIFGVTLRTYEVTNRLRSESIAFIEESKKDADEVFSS

O=C(O)c1ccc(NCc2cc(Cl)cc(Cl)c2O)cc1O [ZL006]
Effect on SNL-induced mechanical hyperalgesia [1]: attenuated both mechanical and thermal hyperalgesia markedly in WT but not in nNOS^-/- mice | Effect on SNL-induced thermal hyperalgesia [2]: attenuated both mechanical and thermal hyperalgesia markedly in WT but not in nNOS^-/- mice | mEPSCs [3]: did not affect SNL-induced increase in miniature excitatory postsynaptic currents (mEPSCs) | mIPSCs frequency and amplitude ([3]; vs vehicle): significantly lower than that in vehicle-treated rats | Analgesic tolerance when used chronically (neuropathic pain): cause obvious analgesic tolerance | Antinociceptive effect on thermal hyperalgesia during chronic use (tolerance) [4]: decreased dramatically at d 7 and d 11, compared to d 1 | Antinociceptive effect on mechanical hyperalgesia during chronic use (tolerance) [5]: decreased dramatically at d 7 and d 11, compared to d 1 | PSD-95-nNOS complex level in the SDH (PSD-95-nNOS complex): reversed the SNL-induced upregulation of PSD-95-nNOS interaction
